Experimental data as given in patent US12570614B2, “Phenyl amino pyrimidine compounds and uses thereof” (GlaxoSmithKline LLC, priority 2007, dated 2026).
pIC50: −log10 of the molar value. Counter-ions that a name gives are not always drawn. Like-named read-outs stand apart in the source and are kept apart here.

Legend:
human JAK2 = human JAK2 (Homo sapiens (Human), UniProt O60674); assay: JAK2 kinase domain Alphascreen enzyme screening; type: biochemical; settings: read-out: JAK2_IC50_nM
Method: (§1) For screening purposes, compounds (in 100% DMSO) were warmed at 37° C. for at least 20 minutes before use. A […] stock was initially made in assay buffer, where the final concentration of DMSO was 0.3%. The stocks were then diluted in 384 well Optiplates (Packard) where the final concentration of the compound was 5 μM.
The kinase domain of human JAK2 was amplified from U937 mRNA using the polymerase chain reaction with the following primers: […]
The JAK2 PCR products were cloned into the pDest20 destination vector (Gibco). The JAK2 plasmid was then transformed into competent DH10Bac cells (Gibco), and the recombinant baculovirus was prepared via Sf9 insect cell transfection.
(§2) Baculovirus preparations from each of the JAK family members were infected into one litre of […] (Spodoptera frugiperda) cells (Invitrogen) grown in SF900II serum free medium (Invitrogen) to a cell density of approximately 2×10^6 cells/ml. Cells were infected with virus at a cell culture to virus stock ratio of 20:1. Cells were harvested and lysed 48 hours post infection. The GST-tagged JAK kinase domains were purified by affinity chromatography on a GSH agarose column (Scientifix).
Alphascreen phosphotyrosine acceptor beads followed by streptavidin donor beads at a concentration of 1/100 in stop buffer were added to each well under subdued light and incubated for 2-3 hours. The Alphascreen plates were read on a Packard Fusion Alpha instrument

human JAK3 = human JAK3 (Homo sapiens (Human), UniProt P52333); assay: JAK3 kinase domain Alphascreen enzyme screening; type: biochemical; settings: read-out: JAK3_ IC50_nM
Method: as §1
The kinase domain of human JAK3 was amplified from U937 mRNA using the polymerase chain reaction with the following primers: […]
The JAK3 PCR products were cloned into the pDest20 destination expression vector (Gibco). The JAK3 plasmid was then transformed into competent DH10Bac cells (Gibco), and the recombinant baculovirus was prepared via Sf9 insect cell transfection.
as §2
The compounds were then incubated with substrate in the presence of either […] ATP for 60 or 90 minutes. […] (final concentration 111 μM) or substrate-2 substrate with the sequence biotin-[…] [SEQ ID NO: 16] (final concentration 133 μM). Alphascreen phosphotyrosine acceptor beads followed by streptavidin donor beads at a concentration of 1/100 in stop buffer were added to each well under subdued light and incubated for 2-3 hours. The Alphascreen plates were read on a Packard Fusion Alpha instrument

[1] = test system: BaF3 TELJAK cells (BafT_J2); assay: Cellular screening, BaF3 TELJAK2 cells (Alamar Blue); type: cell-based; settings: Mus musculus
Method: (§3) For screening purposes, compounds were diluted in 96 well plates at a concentration of 20 μM. Plates were warmed at 37° C. for 30 minutes before the assay was performed.
A TEL/Jak2 fusion was generated by digestion of the TELPCR product with BamH I/Sal I restriction enzymes, digestion of the JAK2 PCR product with Sal I/Not I restriction enzymes, followed by ligation and subcloning of the ligation product into the mammalian expression Vector pTRE 2 (Clontech), which was prepared by digestion with BamH I—Not I restriction enzymes, to give the TEL/Jak2 fusion plasmid pTELJAK2.
(§4) The growth factor dependent myelomonocytic cell line BaF3 bearing the pTET-off plasmid (Clontech) was transfected with either pTELJAK2 or pTELJAK3, and the transfected cells were selected for growth-factor independent cell growth. The BaF3 wild-type cells were cultured in DMEM containing 10% FCS, 10% WEHI 3B conditioned medium. The BaF3 TELJAK cells ([…]) were cultured in DMEM 10% Tet-System Approved FBS (without WEHI 3B conditioned medium).
(§5) Cell suspensions were prepared by harvesting cells from culture (the cells used in this test were in late log phase growth with high viability.) Cells were diluted in the appropriate growth medium, as described above, to 1.1× final concentration (from 50,000 cell/mL to 200,000 cell/mL, depending on cell line).
(§6) Compounds to be tested were added (10 μL, 10× final concentration) to a flat bottomed 96-well plate. The cellular suspension (90 μL per well) was then added, and the plate incubated for 48-72 hr at 37° C., 5% CO2. Alamar Blue 10 μL per well was added and the plates returned to the incubator for a further 4-6 hours.
(§7) Result are given in table 2 where +++ is <1 μM, ++ is <5 μM and + is <20 μM

BaF3 wild-type cells = assay: Cellular screening, BaF3 wild-type cells (Alamar Blue); type: cell-based; settings: Mus musculus, 48-72 hr incubation, read-out: BAF3wt_IC50_μM
Method: as §3, §4, §5
as §6, with “hours. The plates were then read at 544 nm.” for “hours.”
as §7

CTLL2 = assay: Cellular screening, CTLL2 cells (Alamar Blue); type: cell-based; settings: Mus musculus, CTLL-2; 48-72 hr incubation; read-out: CTLL2_IC50_μM
Method: as §3, §5
as §6, with “hours. The plates were then read at 544 nm.” for “hours.”
as §7

[2] = BaF3, 48-72 hr incubation, read-out: BafT_J2_IC50_μM

Chain of human JAK3 (P52333 822-1111): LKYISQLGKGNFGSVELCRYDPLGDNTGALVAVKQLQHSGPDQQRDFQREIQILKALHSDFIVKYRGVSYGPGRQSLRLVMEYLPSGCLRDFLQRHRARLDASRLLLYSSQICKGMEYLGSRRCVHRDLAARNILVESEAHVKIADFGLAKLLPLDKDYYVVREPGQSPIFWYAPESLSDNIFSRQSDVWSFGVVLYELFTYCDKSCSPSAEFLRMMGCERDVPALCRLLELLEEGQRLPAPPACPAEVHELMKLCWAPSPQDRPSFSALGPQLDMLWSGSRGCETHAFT
Chain of human JAK2 (O60674 849-1124): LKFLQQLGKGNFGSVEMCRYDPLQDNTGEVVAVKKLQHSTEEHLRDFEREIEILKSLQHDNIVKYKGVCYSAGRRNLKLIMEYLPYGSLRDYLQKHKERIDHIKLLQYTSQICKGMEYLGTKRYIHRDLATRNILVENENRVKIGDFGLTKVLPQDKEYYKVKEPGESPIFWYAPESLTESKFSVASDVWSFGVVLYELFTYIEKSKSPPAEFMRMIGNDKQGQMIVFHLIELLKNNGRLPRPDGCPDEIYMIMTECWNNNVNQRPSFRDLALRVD

Compound	pIC50 (human JAK2)	pIC50 (human JAK3)	pIC50 [1, 2]	pIC50 (BaF3 wild-type cells)	pIC50 (CTLL2)	pIC50 ([1]; BaF3, read-out: BafT_J2_IC50_μM)
N#CCNC(=O)CNC(=O)c1ccc(-c2ccnc(Nc3ccc(N4CCOCC4)cc3)n2)cc1 [Compound 34, N-(2-(cyanomethylamino)-2-oxoethyl)-4-(2-(4-morpholinophenyl-amino)pyrimidin-4-yl)benzamide]	> 7.00	> 6.30	> 4.70	> 5.30	> 5.30	
N#CCNC(=O)c1ccc(-c2ccnc(Nc3ccc(N4CCC(CO)CC4)cc3)n2)cc1 [Compound 42, N-(cyanomethyl)-4-(2-(4-(4-(hydroxymethyl)piperidin-1-yl)phenylamino)pyrimidin-4-yl)benzamide]	> 7.00	> 6.30	> 5.30	> 5.30	> 5.30	
N#CCNC(=O)c1ccc(-c2ccnc(Nc3ccc(C(=O)N4CCC(N5CCCC5)CC4)cc3)n2)cc1 [Compound 50, N-(cyanomethyl)-4-(2-(4-(4-(pyrrolidin-1-yl)piperidine-1-carbonyl)phenyl-amino)pyrimidin-4-yl)benzamide]	> 7.00	> 6.00	> 5.30	> 4.70	< 4.70	
N#CCNC(=O)c1ccc(-c2nc(Nc3ccc(N4CCOCC4)cc3)ncc2Cl)cc1 [Compound 53, 4-(5-chloro-2-(4-morpholinophenyl-amino)pyrimidin-4-yl)-N-(cyanomethyl) benzamide]	> 7.00	> 6.30	> 6.00	> 5.30	> 5.30	
CC(=O)N1CCN(c2ccc(Nc3nccc(-c4ccc(C(=O)NCC#N)cc4)n3)cc2)CC1 [Compound 55, 4-(2-(4-(4-acetylpiperazin-1-yl)phenylamino)pyrimidin-4-yl)-N-(cyanomethyl) benzamide]	> 7.00	> 7.00	> 6.00	> 5.30	> 5.30	
Cc1cnc(Nc2ccc(N3CCC(NS(C)(=O)=O)CC3)cc2)nc1-c1ccc(C(=O)NCC#N)cc1 [Compound 56, N-(cyanomethyl)-4-(5-methyl-2-(4-(4-(methylsulfonamido)piperidin-1-yl)phenylamino)pyrimidin-4-yl)benzamide]	> 7.00	> 7.00	> 6.00	> 5.30	> 5.30	
C#CCN(c1ccc(-c2ccnc(Nc3ccc(N4CCOCC4)cc3)n2)cc1)S(C)(=O)=O [Compound 57, N-(4-(2-(4-morpholinophenyl-amino)pyrimidin-4-yl)phenyl)-N-(prop-2-ynyl)methane-sulfonamide tosylate]	> 7.00	> 6.00	> 5.30	> 5.30	> 5.30	
Cc1cnc(Nc2ccc(N3CCC(O)CC3)cc2)nc1-c1ccc(C(=O)NCC#N)cc1 [Compound 58, N-(cyanomethyl)-4-(2-(4-(4-hydroxypiperidin-1-yl)phenylamino)-5-methylpyrimidin-4-yl)benzamide]	> 7.00	> 7.00	> 6.00	> 5.30	> 6.00	
N#CCNC(=O)c1ccc(-c2ccnc(Nc3ccc(OC4CCNCC4)cc3)n2)cc1 [Compound 59, N-(cyanomethyl)-4-(2-(4-(piperidin-4-yloxy)phenylamino)pyrimidin-4-yl)benzamide]	> 7.00	> 6.30	> 5.30	> 6.00	> 5.30	
N#CCNC(=O)c1ccc(-c2nc(Nc3ccc(N4CCOCC4)cc3)ncc2Br)cc1 [Compound 65, 4-(5-bromo-2-(4-morpholinophenyl-amino)pyrimidin-4-yl)-N-(cyanomethyl) benzamide]	> 7.00	> 7.00	> 6.00	> 6.00	> 6.00	
CCCOCc1cccc(Nc2nccc(-c3ccc(C(=O)NCC#N)cc3)n2)c1 [Compound 75, N-(cyanomethyl)-4-(2-(3-(proproxymethyl)phenylamino)pyrimidin-4-yl)benzamide]	> 7.00	> 6.00	> 5.30	> 5.30	> 5.30	
N#CCC(=O)Nc1ccc(-c2ccnc(Nc3ccc(N4CCOCC4)cc3)n2)cc1C(F)(F)F [Compound 76, 2-cyano-N-(4-(2-(4-morpholinophenyl-amino)pyrimidin-4-yl)-2-(trifluoromethyl)phenyl)acetamide]	> 7.00	> 6.00	> 5.30	> 5.30	> 5.30	
C=CCOCc1cc(Nc2nccc(-c3ccc(C(=O)NCC#N)cc3)n2)ccc1N1CCOCC1 [Compound 79]	> 7.00	> 6.30	> 6.00	> 6.00	> 5.30	
CCN1CCC(Oc2ccc(Nc3nccc(-c4ccc(C(=O)NCC#N)cc4)n3)cc2)CC1 [Compound 80, N-(cyanomethyl)-4-(2-(4-(1-ethylpiperidin-4-yloxy)phenylamino)pyrimidin-4-yl)benzamide]	> 7.00	> 6.30	> 6.00	> 5.30	> 5.30	
CS(=O)(=O)N(CC#N)c1ccc(-c2ccnc(Nc3ccc(N4CCOCC4)c(F)c3)n2)cc1 [Compound 81, N-(cyanomethyl)-N-(4-(2-(3-fluoro-4-morpholinophenyl-amino)pyrimidin-4-yl)phenyl)methane-sulfonamide]	> 7.00	< 6.00	> 6.00	> 5.30	> 5.30	
CS(=O)(=O)N(CC#N)c1ccc(-c2ccnc(Nc3ccc(N4CCOCC4)c(C#N)c3)n2)cc1 [Compound 82, N-(4-(2-(3-cyano-4-morpholinophenyl-amino)pyrimidin-4-yl)phenyl)-N-(cyanomethyl) methanesulfonamide]	> 7.00	< 6.00	> 6.00	> 5.30	> 5.30	
N#CCNC(=O)c1ccc(-c2ccnc(Nc3ccc(N4CCS(=O)(=O)CC4)cc3)n2)cc1 [Compound 89, N-(cyanomethyl)-4-(2-{[4-(1,1-dioxo-1λ^6,4-thiomorpholin-4-yl)phenyl]amino}pyrimidin-4-yl)benzamide]	> 7.00	> 6.30	> 5.30	> 5.30	> 5.30	
N#CCNC(=O)c1ccc(-c2nc(Nc3ccc(N4CCOCC4)cc3)ncc2F)cc1 [Compound 93, N-(cyanomethyl)-4-(5-fluoro-2-(4-morpholinophenyl-amino)pyrimidin-4-yl)benzamide]	> 7.00	> 6.30		> 6.00	> 6.00	> 6.00
